This is an account of results in ChEMBL document CHEMBL1145073, “DNA binding ligands targeting drug-resistant bacteria: structure, activity, and pharmacology” (J Med Chem, 2003).

Format in all cases: functional
One experiment deals with Staphylococcus aureus. The experiment in a line: In vitro antimicrobial activity against methicillin resistant Staphylococcus aureus 27660.
Experiment [1] can be described thus: In vitro antimicrobial activity against penicillin-intermediate Streptococcus pneumoniae 49619.
In another experiment the test system is Enterococcus faecalis. The experiment in a line: In vitro antimicrobial activity against vancomycin-susceptible Enterococcus faecalis 29212.

Converted amounts (≈) assume the structure as drawn.

The term MIC denotes the least concentration at which growth counts as inhibited. Higher therefore signals a need for much substance. In the case of `Cn1cc(NC(=O)c2cc(NC(=O)c3cc(-c4ccccc4F)cn3C)cn2C)cc1C(=O)NCCN1CCOCC1`, the MIC amounted to 8 µg/mL (≈ 13.9 µM) with Staphylococcus aureus, 1 µg/mL (≈ 1.74 µM) in experiment [1] and 0.5 µg/mL (≈ 0.869 µM) with Enterococcus faecalis.
For `Cn1cc(NC(=O)c2cc(NC(=O)c3cc(-c4cccc(Cl)c4)cn3C)cn2C)cc1C(=O)NCCN1CCOCC1`, in that order: 8 µg/mL (≈ 13.5 µM), 8 µg/mL (≈ 13.5 µM) and 8 µg/mL (≈ 13.5 µM).
The like results for `Cn1cc(NC(=O)c2cc(NC(=O)c3cc(-c4csnn4)cn3C)cn2C)cc1C(=O)NCCN1CCOCC1` were, in that order, 32 µg/mL (≈ 56.6 µM), 1 µg/mL (≈ 1.77 µM) and 4 µg/mL (≈ 7.07 µM).
For `Cn1cc(NC(=O)c2cc(NC(=O)c3cc(NC(=O)c4cc5ccccc5cn4)cn3C)cn2C)cc1C(=O)NCCN1CCCCC1`, in that order: 0.25 µg/mL (≈ 0.385 µM), 0.031 µg/mL (≈ 0.0477 µM) and 0.062 µg/mL (≈ 0.0954 µM).
Take `Cn1cc(NC(=O)c2cc(NC(=O)c3cc(NC(=O)c4cc5ccccc5cn4)cn3C)cn2C)cc1C(=O)NCCN1CCC(F)CC1`: the MIC with Staphylococcus aureus came to 0.25 µg/mL (≈ 0.374 µM); in experiment [1], 0.031 µg/mL (≈ 0.0464 µM); in the experiment with Enterococcus faecalis, 0.125 µg/mL (≈ 0.188 µM).
With `Cn1cc(NC(=O)c2cc(NC(=O)c3cc(-c4cc5ccccc5[nH]4)cn3C)cn2C)cc1C(=O)NCCN1CCOCC1`, the MIC came to 8 µg/mL (≈ 13.4 µM) against Staphylococcus aureus, 2 µg/mL (≈ 3.35 µM) in experiment [1] and 8 µg/mL (≈ 13.4 µM) with Enterococcus faecalis.
`Cn1cc(NC(=O)c2cc(NC(=O)c3cc(-c4ccc5nonc5c4)cn3C)cn2C)cc1C(=O)NCCN1CCOCC1`: the MIC (in the experiment on Staphylococcus aureus; in experiment [1]; against Enterococcus faecalis) was 8 µg/mL (≈ 13.3 µM) each time.
Regarding `CN1CCN(CCNC(=O)c2cc(NC(=O)c3cc(NC(=O)c4cc(NC(=O)c5sccc5Cl)cn4C)cn3C)cn2C)CC1`, the MIC came out at 4 µg/mL (≈ 6.11 µM) in the experiment on Staphylococcus aureus, 2 µg/mL (≈ 3.06 µM) in experiment [1] and 32 µg/mL (≈ 48.9 µM) in the experiment on Enterococcus faecalis.
Consider `CN(C)CCCNC(=O)c1cc(NC(=O)c2cc(NC(=O)c3cc(NC(=O)c4cc5ccccc5cn4)cn3C)cn2C)cn1C`, for which the MIC against Staphylococcus aureus came out at 4 µg/mL (≈ 6.41 µM); in experiment [1] it was 1 µg/mL (≈ 1.6 µM); in the experiment with Enterococcus faecalis, 4 µg/mL (≈ 6.41 µM).
In the case of `Cn1cc(NC(=O)c2cc(NC(=O)c3cc(-c4ccc5nsnc5c4)cn3C)cn2C)cc1C(=O)NCCN1CCOCC1`, the MIC with Staphylococcus aureus worked out at 8 µg/mL (≈ 13 µM); in experiment [1], 0.5 µg/mL (≈ 0.812 µM); against Enterococcus faecalis, 1 µg/mL (≈ 1.62 µM).
For the compound `COc1ccsc1-c1cc(C(=O)Nc2cc(C(=O)Nc3cc(C(=O)NCCN4CCOCC4)n(C)c3)n(C)c2)n(C)c1`, the MIC in the experiment with Staphylococcus aureus was 32 µg/mL (≈ 53.9 µM); in experiment [1], more than 32 µg/mL; with Enterococcus faecalis it was more than 32 µg/mL.
Turning to `Cn1cc(NC(=O)c2cc(NC(=O)c3cc(-c4ccccc4Cl)cn3C)cn2C)cc1C(=O)NCCN1CCOCC1`, the values for the MIC (against Staphylococcus aureus; in experiment [1]; in the experiment with Enterococcus faecalis) were 32 µg/mL (≈ 54 µM), 32 µg/mL (≈ 54 µM) and 16 µg/mL (≈ 27 µM), respectively.
With `Cn1cc(NC(=O)c2cc(NC(=O)c3cc(-c4cc(Cl)c(Cl)s4)cn3C)cn2C)cc1C(=O)NCCN1CCOCC1`, the results for the MIC (against Staphylococcus aureus; in experiment [1]; in the experiment with Enterococcus faecalis) were 8 µg/mL (≈ 12.6 µM), 4 µg/mL (≈ 6.32 µM) and 8 µg/mL (≈ 12.6 µM), respectively.
On to `Cn1cc(NC(=O)c2cc(NC(=O)c3cc(-c4sccc4O)cn3C)cn2C)cc1C(=O)NCCN1CCOCC1`, for which the MIC (with Staphylococcus aureus; in experiment [1]; against Enterococcus faecalis) was more than 32 µg/mL each time.
`Cn1cc(NC(=O)c2cc(NC(=O)c3cc(-c4sccc4C#N)cn3C)cn2C)cc1C(=O)NCCN1CCOCC1`: the MIC against Staphylococcus aureus stood at 4 µg/mL (≈ 6.79 µM); in experiment [1], 0.5 µg/mL (≈ 0.849 µM); in the experiment with Enterococcus faecalis, 2 µg/mL (≈ 3.4 µM).
On to `Cn1cc(NC(=O)c2cc(NC(=O)c3cc(-c4ccc(Cl)s4)cn3C)cn2C)cc1C(=O)NCCN1CCOCC1`, for which the MIC in the experiment on Staphylococcus aureus is 4 µg/mL (≈ 6.69 µM); in experiment [1] it was 2 µg/mL (≈ 3.34 µM); against Enterococcus faecalis, 2 µg/mL (≈ 3.34 µM).
On to `Cn1cc(NC(=O)c2cc(NC(=O)c3cc(NC(=O)c4cc5ccccc5cn4)cn3C)cn2C)cc1C(=O)NCCN1CCNCC1`, for which the results for the MIC (with Staphylococcus aureus; in experiment [1]; in the experiment with Enterococcus faecalis) were 16 µg/mL (≈ 24.6 µM), more than 32 µg/mL and more than 32 µg/mL, respectively.
Take `CN1CCN(NC(=O)c2cc(NC(=O)c3cc(NC(=O)c4cc(NC(=O)c5cc6ccccc6cn5)cn4C)cn3C)cn2C)CC1`: the MIC (with Staphylococcus aureus; in experiment [1]; against Enterococcus faecalis) was 16 µg/mL (≈ 25.1 µM) throughout.
Regarding `CCCCc1ccc(-c2cc(C(=O)Nc3cc(C(=O)Nc4cc(C(=O)NCCN5CCOCC5)n(C)c4)n(C)c3)n(C)c2)nc1`, the MIC against Staphylococcus aureus was found to be 8 µg/mL (≈ 13 µM); in experiment [1], 2 µg/mL (≈ 3.25 µM); in the experiment on Enterococcus faecalis it was 32 µg/mL (≈ 52.1 µM).
The like results for `Cn1cc(NC(=O)c2cc(NC(=O)c3cc(NC(=O)c4sccc4Cl)cn3C)cn2C)cc1C(=O)NCc1ccccn1` were, in that order, more than 32 µg/mL, 1 µg/mL (≈ 1.62 µM) and 4 µg/mL (≈ 6.46 µM).
For `Cn1cc(NC(=O)c2cc(NC(=O)c3cc(-c4ccc5ccccc5c4)cn3C)cn2C)cc1C(=O)NCCN1CCOCC1`, in that order: 8 µg/mL (≈ 13.2 µM), 4 µg/mL (≈ 6.58 µM) and 4 µg/mL (≈ 6.58 µM).
For `Cn1cc(NC(=O)c2cc(NC(=O)c3cc(-c4ccc(F)cc4F)cn3C)cn2C)cc1C(=O)NCCN1CCOCC1`, the figures for the MIC (against Staphylococcus aureus; in experiment [1]; against Enterococcus faecalis) were 2 µg/mL (≈ 3.37 µM), 0.125 µg/mL (≈ 0.211 µM) and 1 µg/mL (≈ 1.68 µM), respectively.
The like results for `Cn1cc(NC(=O)c2cc(NC(=O)c3cc(NC(=O)c4sccc4Cl)cn3C)cn2C)cc1C(=O)NCCN1CCC(O)CC1` were, in that order, 4 µg/mL (≈ 6.11 µM), 2 µg/mL (≈ 3.05 µM) and 4 µg/mL (≈ 6.11 µM).
For `Cc1cccnc1-c1cc(C(=O)Nc2cc(C(=O)Nc3cc(C(=O)NCCN4CCOCC4)n(C)c3)n(C)c2)n(C)c1`, in that order: 18 µg/mL (≈ 31.4 µM), 1 µg/mL (≈ 1.75 µM) and 8 µg/mL (≈ 14 µM).
For `Cn1cc(NC(=O)c2cc(NC(=O)c3cc(-c4cc5ccccc5o4)cn3C)cn2C)cc1C(=O)NCCN1CCOCC1`, in that order: 2 µg/mL (≈ 3.35 µM), 0.5 µg/mL (≈ 0.837 µM) and 4 µg/mL (≈ 6.69 µM).
With `Cn1cc(NC(=O)c2cc(NC(=O)c3cc(-c4ccco4)cn3C)cn2C)cc1C(=O)NCCN1CCOCC1`, the MIC was found to be 32 µg/mL (≈ 58.4 µM) against Staphylococcus aureus, 1 µg/mL (≈ 1.83 µM) in experiment [1] and 32 µg/mL (≈ 58.4 µM) in the experiment on Enterococcus faecalis.
With `CSc1ccsc1-c1cc(C(=O)Nc2cc(C(=O)Nc3cc(C(=O)NCCN4CCOCC4)n(C)c3)n(C)c2)n(C)c1`, the results for the MIC (in the experiment on Staphylococcus aureus; in experiment [1]; in the experiment on Enterococcus faecalis) were 4 µg/mL (≈ 6.56 µM), 0.125 µg/mL (≈ 0.205 µM) and 8 µg/mL (≈ 13.1 µM), respectively.
The like results for `Cc1c(-c2cc(C(=O)Nc3cc(C(=O)Nc4cc(C(=O)NCCN5CCOCC5)n(C)c4)n(C)c3)n(C)c2)oc2ccccc12` were, in that order, 8 µg/mL (≈ 13.1 µM), 2 µg/mL (≈ 3.27 µM) and 16 µg/mL (≈ 26.2 µM).
For `CN(C)CC(C)(C)CNC(=O)c1cc(NC(=O)c2cc(NC(=O)c3cc(NC(=O)c4cc5ccccc5cn4)cn3C)cn2C)cn1C`, the MIC (in the experiment on Staphylococcus aureus; in experiment [1]; in the experiment on Enterococcus faecalis) was 1 µg/mL (≈ 1.53 µM) throughout.
Turning to `Cn1cc(NC(=O)c2cc(NC(=O)c3cc(-c4cnc(O)c(Cl)c4)cn3C)cn2C)cc1C(=O)NCCN1CCOCC1`, the MIC in the experiment on Staphylococcus aureus is 8 µg/mL (≈ 13.1 µM); in experiment [1], 0.5 µg/mL (≈ 0.821 µM); in the experiment with Enterococcus faecalis, more than 32 µg/mL.
Take `CC(C)S(=O)(=O)c1csc(-c2cc(C(=O)Nc3cc(C(=O)Nc4cc(C(=O)NCCN5CCOCC5)n(C)c4)n(C)c3)n(C)c2)c1Cl`: the values for the MIC (with Staphylococcus aureus; in experiment [1]; in the experiment with Enterococcus faecalis) were 4 µg/mL (≈ 5.68 µM), 1 µg/mL (≈ 1.42 µM) and 4 µg/mL (≈ 5.68 µM), respectively.
For the compound `Cn1cc(NC(=O)c2cc(NC(=O)c3cc(-c4sc(Cl)c(Cl)c4Cl)cn3C)cn2C)cc1C(=O)NCCN1CCOCC1`, the MIC is 16 µg/mL (≈ 24 µM) in the experiment on Staphylococcus aureus, 8 µg/mL (≈ 12 µM) in experiment [1] and more than 32 µg/mL in the experiment on Enterococcus faecalis.
For `Cc1ccsc1-c1cc(C(=O)Nc2cc(C(=O)Nc3cc(C(=O)NCCN4CCOCC4)n(C)c3)n(C)c2)n(C)c1`, the MIC in the experiment on Staphylococcus aureus was determined as 16 µg/mL (≈ 27.7 µM); in experiment [1] it was 4 µg/mL (≈ 6.92 µM); with Enterococcus faecalis, 16 µg/mL (≈ 27.7 µM).
